Source: ChEMBL document CHEMBL1149262, “Monoamine transporter binding, locomotor activity, and drug discrimination properties of 3-(4-substituted-phenyl)tropane-2-carboxylic acid methyl ester isomers” (J Med Chem, 2004)
Activity calls are given as the source filed them. The calls are words filed in the database; no cut-off is given here.

Experiments:
[1] = target: Sodium-dependent noradrenaline transporter (Homo sapiens, UniProt P23975); experiment: Displacement of [3H]nisoxetine from NET
[2] = tested on: Mus musculus; experiment: Locomotor activity in CD1 mouse assessed as stimulation at 3 mg/kg, ip after 4 hrs relative to control; type: functional; conditions: route intraperitoneal
[3] = tested on: Rattus norvegicus; experiment: Drug discrimination effect in CD Albino rat assessed as percent of rat choosing cocaine lever at 5.6 mg/kg, ip; type: functional; conditions: route intraperitoneal
[4] = tested on: Mus musculus; experiment: Locomotor activity in CD1 mouse assessed as stimulation at 3 mg/kg, ip after 3 hrs relative to control; type: functional; conditions: route intraperitoneal
[5] = tested on: Mus musculus; experiment: Locomotor activity in CD1 mouse assessed as stimulation at 30 mg/kg, ip after 4 hrs relative to control; type: functional; conditions: route intraperitoneal
[6] = tested on: Mus musculus; experiment: Locomotor activity in CD1 mouse assessed as stimulation at 10 mg/kg, ip after 1 hr relative to control; type: functional; conditions: route intraperitoneal
[7] = tested on: Mus musculus; experiment: Locomotor activity in CD1 mouse assessed as stimulation at 1 mg/kg, ip after 4 hrs relative to control; type: functional; conditions: route intraperitoneal
[8] = tested on: Mus musculus; experiment: Locomotor activity in CD1 mouse assessed as stimulation at 10 mg/kg, ip after 2 hrs relative to control; type: functional; conditions: route intraperitoneal
[9] = tested on: Mus musculus; experiment: Locomotor activity in CD1 mouse assessed as stimulation at 3 mg/kg, ip after 2 hrs relative to control; type: functional; conditions: route intraperitoneal
[10] = tested on: Mus musculus; experiment: Activity in CD1 mouse assessed as tremor at 100 mg/kg, ip after 4 hrs; type: functional, organism-based; set-up: dose 100 mg/kg
[11] = tested on: Mus musculus; experiment: Locomotor activity in CD1 mouse assessed as stimulation at 30 mg/kg, ip after 3 hrs relative to control; type: functional; conditions: route intraperitoneal
[12] = tested on: Mus musculus; experiment: Activity in CD1 mouse assessed as ataxia at 100 mg/kg, ip after 4 hrs; type: functional, organism-based; set-up: dose 100 mg/kg
[13] = tested on: Mus musculus; experiment: Locomotor activity in CD1 mouse assessed as stimulation at 30 mg/kg, ip after 2 hrs relative to control; type: functional; conditions: route intraperitoneal
[14] = tested on: Rattus norvegicus; experiment: Drug discrimination effect in CD Albino rat assessed as percent of rat choosing cocaine lever at 17 mg/kg, ip; type: functional; conditions: route intraperitoneal
[15] = target: Sodium-dependent dopamine transporter (Homo sapiens, UniProt Q01959); experiment: Displacement of [3H]WIN-35428 from DAT
[16] = tested on: Mus musculus; experiment: Locomotor activity in CD1 mouse assessed as stimulation at 1 mg/kg, ip after 2 hrs relative to control; type: functional; conditions: route intraperitoneal
[17] = tested on: Mus musculus; experiment: Locomotor activity in ip dosed CD1 mouse in peak hour; type: functional
[18] = tested on: Mus musculus; experiment: Locomotor activity in CD1 mouse assessed as stimulation at 1 mg/kg, ip after 1 hr relative to control; type: functional; conditions: route intraperitoneal
[19] = tested on: Mus musculus; experiment: Activity in CD1 mouse assessed as circling at 100 mg/kg, ip after 4 hrs; type: functional, organism-based; set-up: dose 100 mg/kg
[20] = tested on: Rattus norvegicus; experiment: Cocaine discrimination in ip dosed CD Albino rat; type: functional
[21] = tested on: Mus musculus; experiment: Locomotor activity in CD1 mouse assessed as stimulation at 3 mg/kg, ip after 1 hr relative to control; type: functional; conditions: route intraperitoneal
[22] = tested on: Rattus norvegicus; experiment: Drug discrimination effect in CD Albino rat assessed as percent of rat choosing cocaine lever at 10 mg/kg, ip; type: functional; conditions: route intraperitoneal
[23] = tested on: Mus musculus; experiment: Locomotor activity in CD1 mouse assessed as stimulation at 1 mg/kg, ip after 3 hrs relative to control; type: functional; conditions: route intraperitoneal
[24] = tested on: Mus musculus; experiment: Locomotor activity in CD1 mouse assessed as stimulation at 10 mg/kg, ip after 3 hrs relative to control; type: functional; conditions: route intraperitoneal
[25] = tested on: Mus musculus; experiment: Locomotor activity in CD1 mouse assessed as stimulation at 10 mg/kg, ip after 4 hrs relative to control; type: functional; conditions: route intraperitoneal
[26] = tested on: Mus musculus; experiment: Locomotor activity in CD1 mouse assessed as stimulation at 30 mg/kg, ip after 1 hr relative to control; type: functional; conditions: route intraperitoneal
[27] = tested on: Mus musculus; experiment: Activity in CD1 mouse assessed as hind limb splay at 100 mg/kg, ip after 4 hrs; type: functional, organism-based; set-up: dose 100 mg/kg; conditions: Hindlimb
[28] = tested on: Mus musculus; experiment: Activity in CD1 mouse assessed as convulsions at 100 mg/kg, ip after 4 hrs; type: functional, organism-based; set-up: dose 100 mg/kg
[29] = tested on: Mus musculus; experiment: Activity in CD1 mouse assessed as stimulation at 100 mg/kg, ip after 4 hrs; type: functional, organism-based; set-up: dose 100 mg/kg
[30] = tested on: Mus musculus; experiment: Locomotor activity in CD1 mouse assessed as stimulation at 0.3 mg/kg, ip after 2 hrs relative to control; type: functional; conditions: route intraperitoneal
[31] = target: Sodium-dependent serotonin transporter (Homo sapiens, UniProt P31645)
Description: Displacement of [3H]paroxetine from 5HTT

[32] = tested on: Mus musculus; experiment: Locomotor activity in CD1 mouse assessed as stimulation at 0.3 mg/kg, ip after 3 hrs relative to control; type: functional; conditions: route intraperitoneal
[33] = tested on: Mus musculus; experiment: Locomotor activity in ip dosed CD1 mouse after 1 hr relative to cocaine; type: functional
[34] = tested on: Rattus norvegicus; experiment: Drug discrimination effect in CD Albino rat assessed as percent of rat choosing cocaine lever at 0.1 mg/kg, ip; type: functional; conditions: route intraperitoneal
[35] = tested on: Mus musculus; experiment: Activity in CD1 mouse assessed as circling at 1 mg/kg, ip after 4 hrs; type: functional, organism-based; set-up: dose 1 mg/kg
[36] = tested on: Mus musculus; experiment: Activity in CD1 mouse assessed as slight or intermittent hyperactivity at 100 mg/kg, ip after 4 hrs; type: functional, organism-based; set-up: dose 100 mg/kg
[37] = tested on: Mus musculus; experiment: Activity in CD1 mouse assessed as stereotypy at 1 mg/kg, ip after 4 hrs; type: functional, organism-based; set-up: dose 1 mg/kg
[38] = tested on: Mus musculus; experiment: Activity in CD1 mouse assessed as death at 100 mg/kg, ip after 4 hrs; type: functional, organism-based; set-up: dose 100 mg/kg
[39] = tested on: Mus musculus; experiment: Locomotor activity in CD1 mouse assessed as stimulation at 0.1 mg/kg, ip after 4 hrs relative to control; type: functional; conditions: route intraperitoneal
[40] = tested on: Mus musculus; experiment: Locomotor activity in CD1 mouse assessed as stimulation at 0.3 mg/kg, ip after 4 hrs relative to control; type: functional; conditions: route intraperitoneal
[41] = tested on: Mus musculus; experiment: Locomotor activity in CD1 mouse assessed as stimulation at 0.1 mg/kg, ip after 3 hrs relative to control; type: functional; conditions: route intraperitoneal
[42] = tested on: Mus musculus; experiment: Activity in CD1 mouse assessed as stereotypy at 10 mg/kg, ip after 4 hrs; type: functional, organism-based; set-up: dose 10 mg/kg
[43] = tested on: Mus musculus; experiment: Activity in CD1 mouse assessed as slight or intermittent hyperactivity at 10 mg/kg, ip after 4 hrs; type: functional, organism-based; set-up: dose 10 mg/kg
[44] = tested on: Mus musculus; experiment: Locomotor activity in CD1 mouse assessed as stimulation at 0.3 mg/kg, ip after 1 hr relative to control; type: functional; conditions: route intraperitoneal
[45] = tested on: Rattus norvegicus; experiment: Drug discrimination effect in CD Albino rat assessed as percent of rat choosing cocaine lever at 0.3 mg/kg, ip; type: functional; conditions: route intraperitoneal
[46] = tested on: Mus musculus; experiment: Activity in CD1 mouse assessed as hyperactivity at 1 mg/kg, ip after 4 hrs; type: functional, organism-based; set-up: dose 1 mg/kg
[47] = tested on: Mus musculus; experiment: Locomotor activity in CD1 mouse assessed as stimulation at 0.1 mg/kg, ip after 2 hrs relative to control; type: functional; conditions: route intraperitoneal
[48] = tested on: Mus musculus; experiment: Activity in CD1 mouse assessed as circling at 10 mg/kg, ip after 4 hrs; type: functional, organism-based; set-up: dose 10 mg/kg
[49] = tested on: Mus musculus; experiment: Locomotor activity in CD1 mouse assessed as stimulation at 0.1 mg/kg, ip after 1 hr relative to control; type: functional; conditions: route intraperitoneal
[50] = tested on: Mus musculus; experiment: Activity in CD1 mouse assessed as stereotypy at 100 mg/kg, ip after 4 hrs; type: functional, organism-based; set-up: dose 100 mg/kg
[51] = tested on: Rattus norvegicus; experiment: Drug discrimination effect in CD Albino rat assessed as percent of rat choosing cocaine lever at 0.17 mg/kg, ip; type: functional; conditions: route intraperitoneal
[52] = tested on: Mus musculus; experiment: Locomotor activity in CD1 mouse assessed as stimulation at 100 mg/kg, ip after 2 hrs relative to control; type: functional; conditions: route intraperitoneal
[53] = tested on: Rattus norvegicus; experiment: Drug discrimination effect in CD Albino rat assessed as percent of rat choosing cocaine lever at 3 mg/kg, ip; type: functional; conditions: route intraperitoneal
[54] = tested on: Rattus norvegicus; experiment: Drug discrimination effect in CD Albino rat assessed as percent of rat choosing cocaine lever at 1 mg/kg, ip; type: functional; conditions: route intraperitoneal
[55] = tested on: Mus musculus; experiment: Locomotor activity in CD1 mouse assessed as stimulation at 100 mg/kg, ip after 3 hrs relative to control; type: functional; conditions: route intraperitoneal
[56] = tested on: Mus musculus; experiment: Locomotor activity in CD1 mouse assessed as stimulation at 100 mg/kg, ip after 4 hrs relative to control; type: functional; conditions: route intraperitoneal
[57] = tested on: Mus musculus; experiment: Activity in CD1 mouse assessed as hyperactivity at 10 mg/kg, ip after 4 hrs; type: functional, organism-based; set-up: dose 10 mg/kg
[58] = tested on: Mus musculus; experiment: Locomotor activity in CD1 mouse assessed as stimulation at 100 mg/kg, ip after 1 hr relative to control; type: functional; conditions: route intraperitoneal
[59] = tested on: Rattus norvegicus; experiment: Drug discrimination effect in CD Albino rat assessed as percent of rat choosing cocaine lever at 1.7 mg/kg, ip; type: functional; conditions: route intraperitoneal

Chain of Sodium-dependent dopamine transporter (Q01959 whole entry): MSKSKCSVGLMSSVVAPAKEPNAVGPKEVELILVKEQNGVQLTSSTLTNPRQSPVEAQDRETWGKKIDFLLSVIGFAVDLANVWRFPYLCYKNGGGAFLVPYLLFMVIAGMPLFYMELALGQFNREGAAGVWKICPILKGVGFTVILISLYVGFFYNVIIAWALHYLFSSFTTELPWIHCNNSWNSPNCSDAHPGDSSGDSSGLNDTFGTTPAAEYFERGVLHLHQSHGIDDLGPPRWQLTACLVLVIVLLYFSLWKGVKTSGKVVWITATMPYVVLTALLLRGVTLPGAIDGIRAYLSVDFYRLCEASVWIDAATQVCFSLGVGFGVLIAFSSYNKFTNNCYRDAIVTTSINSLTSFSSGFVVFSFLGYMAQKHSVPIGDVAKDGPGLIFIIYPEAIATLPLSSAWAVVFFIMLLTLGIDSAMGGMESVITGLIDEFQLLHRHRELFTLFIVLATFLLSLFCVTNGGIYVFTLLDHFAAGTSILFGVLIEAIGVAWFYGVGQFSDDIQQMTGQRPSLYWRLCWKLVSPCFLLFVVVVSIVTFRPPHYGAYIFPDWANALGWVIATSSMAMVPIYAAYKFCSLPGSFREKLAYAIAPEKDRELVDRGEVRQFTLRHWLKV
Chain of Sodium-dependent noradrenaline transporter (P23975 whole entry): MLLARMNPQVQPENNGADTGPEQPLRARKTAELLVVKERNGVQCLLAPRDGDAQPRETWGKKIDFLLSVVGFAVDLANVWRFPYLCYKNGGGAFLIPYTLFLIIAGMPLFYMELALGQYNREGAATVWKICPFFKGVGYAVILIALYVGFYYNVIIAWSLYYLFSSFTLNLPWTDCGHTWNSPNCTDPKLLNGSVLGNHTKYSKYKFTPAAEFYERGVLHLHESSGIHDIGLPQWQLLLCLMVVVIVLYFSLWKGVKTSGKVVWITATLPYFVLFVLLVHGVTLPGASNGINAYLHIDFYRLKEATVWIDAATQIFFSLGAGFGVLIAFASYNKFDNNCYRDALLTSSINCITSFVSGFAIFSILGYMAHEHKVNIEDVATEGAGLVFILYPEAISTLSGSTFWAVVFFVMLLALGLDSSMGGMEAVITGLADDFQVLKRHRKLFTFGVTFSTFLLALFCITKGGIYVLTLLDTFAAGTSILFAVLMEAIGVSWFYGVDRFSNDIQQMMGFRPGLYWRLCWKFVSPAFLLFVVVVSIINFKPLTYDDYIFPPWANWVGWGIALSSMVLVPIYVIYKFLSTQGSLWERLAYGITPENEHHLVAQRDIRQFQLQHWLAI
Chain of Sodium-dependent serotonin transporter (P31645 whole entry): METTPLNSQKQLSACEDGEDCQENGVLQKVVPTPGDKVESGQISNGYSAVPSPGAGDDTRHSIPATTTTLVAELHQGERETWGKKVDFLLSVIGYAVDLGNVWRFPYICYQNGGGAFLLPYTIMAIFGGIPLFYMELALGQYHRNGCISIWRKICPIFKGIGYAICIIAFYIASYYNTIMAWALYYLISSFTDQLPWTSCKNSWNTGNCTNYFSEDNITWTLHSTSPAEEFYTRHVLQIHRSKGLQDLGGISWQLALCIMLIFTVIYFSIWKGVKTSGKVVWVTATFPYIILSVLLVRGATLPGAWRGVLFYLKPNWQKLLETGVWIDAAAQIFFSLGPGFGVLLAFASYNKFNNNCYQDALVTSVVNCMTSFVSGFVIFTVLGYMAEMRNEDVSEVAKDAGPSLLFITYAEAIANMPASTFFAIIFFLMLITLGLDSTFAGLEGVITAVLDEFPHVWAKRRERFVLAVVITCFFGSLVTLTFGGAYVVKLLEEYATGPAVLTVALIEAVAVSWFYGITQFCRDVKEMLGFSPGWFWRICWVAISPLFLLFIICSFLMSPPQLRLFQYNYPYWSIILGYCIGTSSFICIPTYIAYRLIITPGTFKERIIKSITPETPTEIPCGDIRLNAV

## COC(=O)[C@H]1C2CCC(C[C@@H]1c1ccccc1)N2C (stereo partly drawn)
[1]
  IC50: > 10000 nM
[2]
  Activity: -50%
[3]
  Activity: 29%
[4]
  Activity: -9%
[5]
  Activity: 12%
[6]
  Activity: 35%
[7]
  Activity: -60%
[8]
  Activity: 16%
[9]
  Activity: -20%
[10]
  Activity: Active
[11]
  Activity: 69%
[12]
  Activity: Active
[13]
  Activity: 122%
[14]
  Activity: 100%
[15]
  IC50: 670 nM
[16]
  Activity: 35%
[17]
  ED50: 11.7 mg/kg
[18]
  Activity: 9%
[19]
  Activity: Active
[20]
  ED50: 7.66 mg/kg
[21]
  Activity: -14%
[22]
  Activity: 67%
[23]
  Activity: 12%
[24]
  Activity: -16%
[25]
  Activity: -27%
[26]
  Activity: 138%
[27]
  Activity: Active
[28]
  Activity: Active
[29]
  Activity: Active

## COC(=O)[C@@H]1C2CC[C@H](C[C@@H]1c1ccc(I)cc1)N2C
[30]
  Activity: 1765%
[31]
  Ki: 0.38 nM
[1]
  IC50: 36 nM
  Ki: 22 nM
[32]
  Activity: 1289%
[2]
  Activity: 794%
[4]
  Activity: 327%
[33]
  Ratio: 4.4
[34]
  Activity: 22%
[35]
  Activity: Active
[7]
  Activity: 2546%
[36]
  Activity: Active
[37]
  Activity: Active
[9]
  Activity: 145%
[38]
  Activity: Active
[39]
  Activity: 62%
[40]
  Activity: 900%
[41]
  Activity: -25%
[42]
  Activity: Active
[43]
  Activity: Active
[15]
  IC50: 1.3 nM
[44]
  Activity: 415%
[16]
  Activity: 1721%
[17]
  ED50: 0.4 mg/kg
[45]
  Activity: 100%
[18]
  Activity: 1489%
[46]
  Activity: Active
[20]
  ED50: 0.2 mg/kg
[21]
  Activity: 770%
[23]
  Activity: 2099%
[47]
  Activity: 38%
[48]
  Activity: Active
[49]
  Activity: -12%
[50]
  Activity: Active
[27]
  Activity: Active
[51]
  Activity: 25%

## COC(=O)[C@@H]1C2CCC(C[C@H]1c1ccc(Cl)cc1)N2C (stereo partly drawn)
[52]
  Activity: 217%
[2]
  Activity: 38%
[3]
  Activity: 67%
[4]
  Activity: 135%
[5]
  Activity: 158%
[6]
  Activity: 340%
[8]
  Activity: 322%
[9]
  Activity: 64%
[53]
  Activity: 67%
[11]
  Activity: 1002%
[13]
  Activity: 1127%
[54]
  Activity: 25%
[15]
  IC50: 3.1 nM
[17]
  ED50: 9.1 mg/kg
[19]
  Activity: Active
[20]
  ED50: 2.55 mg/kg
[55]
  Activity: 1065%
[21]
  Activity: 49%
[56]
  Activity: 598%
[22]
  Activity: 100%
[24]
  Activity: 373%
[57]
  Activity: Active
[25]
  Activity: 11%
[58]
  Activity: 487%
[26]
  Activity: 868%
[50]
  Activity: Active
[59]
  Activity: 25%
[29]
  Activity: Active
